# Literature values, collected in patent publication US20060172014A1, “Treatment of lung cancer with active vitamin D compounds in combination with other treatments” (Novacea, Inc., priority 2003, published 2006).
# What was measured:
# [1] = test system: patients with refractory malignancies; conditions: weekly HDPA of calcitriol; Beer et al.
structure (smiles),measurement,setting,value
"C=C1/C(=C\C=C2/CCC[C@]3(C)[C@@H]([C@H](C)CCCC(C)(C)O)CC[C@@H]23)C[C@@H](O)C[C@@H]1O [calcitriol, 1α,25-dihydroxyvitamin D3]",Dose-limiting toxicity,[1],no dose-limiting toxicity
same,Mean peak calcitriol levels,[1],within the therapeutic range
same,Growth of lung cancer cell line,lung cancer cell line; cell line containing high levels of vitamin D receptor,inhibit the growth
same,Growth of lung cancer cell lines,lung cancer cell line; cell lines having insignificant levels of the receptor,not
